Publication PMC7076694, “The Qi Site of Cytochrome b is a Promiscuous Drug Target in Trypanosoma cruzi and Leishmania donovani” (ACS Infectious Diseases, 2020)
Where two headings read alike, the source gives them in different places.

Tests used:
[1] = test system: T. cruzi epimastigotes; assay: T. cruzi epimastigote respiration (O2 consumption, MitoXpress-Xtra); assay type: cell-based; details: Trypanosoma cruzi, read-out: O2 consumption, IC50 values, T. cruzi
Description: Compounds were predispensed (150 nL well^–1) into 384-well assay plates using an Echo liquid handler (Labcyte Inc.). […] The negative control for this assay was 0.2% DMSO, equivalent to the final concentration of solvent used in drug dilutions.
Our O2 consumption assay was an adaptation of the assay described by Khare and colleagues.[14] Briefly, assay buffer (250 mM sucrose, 15 mM KCl, 5 mM MgCl2, 1 mM EGTA, 30 mM K2HPO4, pH 7.4; 25 μL) was added to 384-well assay plates and incubated at 37 °C for 10 min. Mid log T. cruzi epimastigotes were harvested (1600g for 10 min at 4 °C), washed three times with buffer A (10 mM Tris-HCl, pH 7.4, 230 mM mannitol, 70 mM sucrose, 0.2 mM EDTA, 0.2% bovine serum albumin, 0.5 mM PMSF), and finally resuspended at 1.5 × 10^8 epimastigotes mL^–1. Following resuspension, 3 × 10^6 epimastigotes (20 μL) were dispensed into each well followed by MitoXpress-Xtra probe (15 μL, Agilent) resulting in a final assay volume of 60 μL. Plates were gently shaken, and 30 μL of HS mineral oil (Agilent) was then added to each well to prevent oxygen exchange between the assay buffer and air. Plates were incubated for 90 min at 37 °C, and fluorescence was then measured using an EnVision MultiMode plate reader (PerkinElmer) using excitation and emission wavelengths of 380 and 650 nm, respectively.
Data were normalized to percent of biological response by using positive (i.e., highest response achieved using a chemical tool compound, RactinomycinA) or negative (i.e., lowest response achieved in the absence of any testing compound, RDMSO) controls by using the following equation: [drawing 3] where Rx is the assay response measured in the presence of test compounds.

[2] = molecular target: complex III (cytochrome bc1 complex) (Trypanosoma cruzi, UniProt Q9T479); assay: Complex III (cytochrome c reduction) assay, T. cruzi lysate; assay type: biochemical; details: mitochondria-enriched lysate of epimastigotes
[3] = test system: L. donovani Intramacrophage Amastigotes; assay: L. donovani intramacrophage amastigote drug sensitivity; assay type: cell-based; details: Leishmania donovani, read-out: EC50 values, L. donovani Intra-MAC
Description: (§1) T. cruzi and L. donovani intracellular amastigote drug sensitivity assays were conducted as previously described.[42],[43]

[4] = test system: T. brucei Bloodstream Forms; assay: T. brucei bloodstream form drug sensitivity; assay type: cell-based, Trypanosoma brucei; details: read-out: EC50 values, T. brucei BSF
Description: EC50 values for test compounds were determined as previously described.[40]

[5] = test system: L. donovani intracellular amastigotes within macrophages; assay: microbe, parasite or virus in culture; assay type: cell-based; details: Leishmania donovani
[6] = test system: T. brucei Procyclics; assay: T. brucei procyclic drug sensitivity (resazurin); assay type: cell-based, Trypanosoma brucei; details: read-out: EC50 values, T. brucei Pro
Description: To examine the effects of test compounds on growth, mid log procyclics were seeded into 96-well plates at a cell density of 5 × 10^5 cells mL^–1. Cells were exposed to test compounds over a range of concentrations (2-fold serial dilutions). Following 72 h of incubation in the presence of drug, 500 μM resazurin was added to each well and fluorescence measured after a further 2 h incubation.

[7] = test system: T. cruzi epimastigotes; assay: microbe, parasite or virus in culture; assay type: cell-based; details: Trypanosoma cruzi
[8] = molecular target: T1, complex III (cytochrome bc1 complex) (Leishmania donovani, UniProt A5HU08); assay: biochemical; assay type: biochemical; details: read-out: complex III IC50 values, Compound 1 RES1 lysate; lysate of L. donovani Compound 1 RES1 cell line
T1 sequence (A5HU08 1-290): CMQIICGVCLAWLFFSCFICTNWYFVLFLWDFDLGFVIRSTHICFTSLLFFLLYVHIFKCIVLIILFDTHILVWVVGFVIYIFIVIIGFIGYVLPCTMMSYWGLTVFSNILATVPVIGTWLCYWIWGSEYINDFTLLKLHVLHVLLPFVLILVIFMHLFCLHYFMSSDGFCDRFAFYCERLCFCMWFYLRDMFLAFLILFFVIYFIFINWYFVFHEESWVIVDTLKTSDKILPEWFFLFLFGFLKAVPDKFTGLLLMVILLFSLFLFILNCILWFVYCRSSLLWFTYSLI
T1 sequence (A0A3S7WPP0 1-258 partner): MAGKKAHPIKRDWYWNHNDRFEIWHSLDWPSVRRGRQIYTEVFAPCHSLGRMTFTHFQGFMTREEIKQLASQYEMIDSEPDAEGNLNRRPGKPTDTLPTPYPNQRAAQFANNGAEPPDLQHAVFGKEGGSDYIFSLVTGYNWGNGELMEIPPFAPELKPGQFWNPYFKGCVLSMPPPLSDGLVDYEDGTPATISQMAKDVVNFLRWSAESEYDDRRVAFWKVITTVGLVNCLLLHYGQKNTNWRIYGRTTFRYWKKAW

[9] = molecular target: complex III (cytochrome bc1 complex) (Leishmania donovani, UniProt A5HU08); assay: biochemical; assay type: biochemical
[10] = test system: L. donovani promastigotes; assay: microbe, parasite or virus in culture; assay type: cell-based, Leishmania donovani; details: for EC50: Leishmania donovani
[11] = test system: T. cruzi Intra-Vero Cells (intracellular amastigotes); assay: T. cruzi intracellular amastigote (Intra-Vero) drug sensitivity; assay type: cell-based; details: Trypanosoma cruzi; intracellular amastigotes in Vero cells
Description: as §1

[12] = test system: HepG2 Cells; assay: HepG2 cell potency; assay type: cell-based; details: Homo sapiens
Description: Table 1 Compound Efficacy: Potencies of Compounds Were Determined against L. donovani Promastigotes (Pro), L. donovani Intramacrophage Amastigotes (Intra-MAC), T. cruzi Epimastigotes (Epi), T. cruzi Intra-Vero Cells (Intra-Vero), T. brucei Bloodstream Forms (BSF), T. brucei Procyclics (Pro), and HepG2 Cells ^a | column: HepG2

[13] = molecular target: T2, complex III (cytochrome bc1 complex) (Leishmania donovani, UniProt A5HU08, F187I); assay: biochemical; assay type: biochemical
T2 sequence (A5HU08 1-290 F187I): T1 sequence (A5HU08 1-290)
T2 sequence (A0A3S7WPP0 1-258 partner): T1 sequence (A0A3S7WPP0 1-258 partner)

[14] = test system: T. cruzi epimastigotes; design: method as in PMID 26186534; details: reported previously ref 14; read-out: O2 consumption, IC50 values, T. cruzi; cited from earlier work
[15] = test system: T. cruzi Intra-Vero Cells (intracellular amastigotes); design: method as in PMID 26186534; details: reported previously ref 14; cited from earlier work
[16] = test system: T. cruzi intracellular amastigotes; design: method as in PMID 25740547; details: high-throughput screening hit ref 13; read-out: EC50 against T. cruzi intracellular amastigotes; cited from earlier work
[17] = epimastigotes (3 × 10^6), MitoXpress-Xtra probe
[18] = Trypanosoma brucei, bloodstream form
[19] = Macrophage, read-out: Leishmania EC50, Compound 1 RES1
[20] = Macrophage, read-out: Leishmania EC50, Compound 2 RES1
[21] = intra-macrophage, WT parasites, read-out: Leishmania EC50, WT
[22] = wild-type epimastigotes, read-out: EC50 values, T. cruzi Epi
[23] = wild-type promastigotes, read-out: EC50 values, L. donovani Pro
[24] = HepG2 cells, read-out: EC50 values, HepG2

SMILES	IC50 [1, 17]	IC50 [2]	EC50 [3]	EC50 [4, 18]	EC50 [5, 19]	EC50 [5, 20]	EC50 [5, 21]	EC50 ([6]; Trypanosoma brucei, procyclics)	EC50 [7, 22]	IC50 [9]	EC50 [10, 23]	EC50 [11]	EC50 [12, 24]	further results
Cc1nn2c(=O)c(Cc3ccc(Cl)cc3)c(C)[nH]c2c1C [compound 1]	150 ± 36 nM	72 ± 16 nM	1500 ± 400 nM	6.6 ± 0.47 µM	1300 nM	20 nM	100 nM	97 ± 3 nM	210 ± 7 nM	44 ± 7 nM	19 ± 1 nM	20 ± 3 nM	> 50 µM	EC50 ([4]; bloodstream form, listed as DDD01542111 (compound 1)): 6.7 ± 0.47 µM; EC50 ([7]; WT epimastigotes, resistance study, read-out: EC50 against WT T. cruzi (Figure 2)): 120 ± 6 nM; EC50 ([7]; compound 1-resistant epimastigote clone RES I, read-out: EC50 against T. cruzi RES I): 1400 ± 78 nM; EC50 ([7]; compound 1-resistant epimastigote clone RES II, read-out: EC50 against T. cruzi RES II): 2500 ± 62 nM; EC50 ([7]; compound 1-resistant epimastigote clone RES III, read-out: EC50 against T. cruzi RES III): 3800 ± 160 nM; IC50 [8]: 220 ± 51 nM; EC50 ([10]; WT promastigotes, resistance study, read-out: EC50 against WT L. donovani (Figure 2)): 21.5 ± 0.5 nM; EC50 ([10]; compound 1-resistant promastigote clone RES I, read-out: EC50 against L. donovani RES I): 1300 ± 14 nM; EC50 ([10]; compound 1-resistant promastigote clone RES II, read-out: EC50 against L. donovani RES II): 1300 ± 96 nM; EC50 ([10]; compound 1-resistant promastigote clone RES III, read-out: EC50 against L. donovani RES III): 790 ± 27 nM
Cc1cc(C)c2c(N)c(C(=O)N3CCC(C)(C)c4ccccc43)sc2n1 [compound 2]	510 ± 119 nM	100 ± 24 nM	1100 ± 600 nM	8 ± 0.97 µM	30 nM	4400 nM	400 nM	140 ± 14 nM	71 ± 2 nM	99 ± 13 nM	24 ± 2 nM	30 ± 10 nM	> 50 µM	IC50 [13]: 4.2 ± 0.5 µM
CCc1c(C)c(C#N)c2nc3ccccc3n2c1O [GNF7686, reference compound]	–	550 ± 97 nM	> 50000 nM	> 50 µM	–	–	–	521 nM	710 ± 17 nM	1600 ± 300 nM	570 ± 51 nM	–	> 50 µM	IC50 [14]: 210 nM; EC50 ([6]; procyclics): 520 ± 13 nM; EC50 [15]: 150 ± 30 nM; relative sensitivity of L. donovani promastigotes bearing cytochrome b C222F mutation ([10]; compound 1-selected clone, relative to wild-type): markedly cross-resistant; relative sensitivity of L. donovani promastigotes bearing cytochrome b G37A mutation ([10]; compound 1-selected clones, relative to wild-type): remaining sensitive
CC(=O)Nc1ccc2[nH]c(=O)n([C@H]3CC[C@H](C(C)C)CC3)c(=O)c2c1 [compound 3]	190 ± 38 nM	86 ± 39 nM	> 50000 nM	8.7 ± 0.47 µM	–	–	–	88 ± 2 nM	320 ± 12 nM	> 13000 nM	1640 ± 54 nM	150 ± 46 nM	7.3 ± 0.06 µM	–
Cc1nc2nc(C)c(Cc3ccc(C(C)C)cc3)c(=O)n2[nH]1 [TCMDC-143087]	–	–	–	–	–	–	–	–	–	–	–	–	–	EC50 [16]: 250 nM
CCCCCC[C@H]1C(=O)O[C@H](C)[C@H](NC(=O)c2cccc(NC=O)c2O)C(=O)O[C@@H](C)[C@@H]1OC(=O)CC(C)C [antimycin A, reference compound]	–	–	–	–	–	–	–	–	28 ± 1 nM	–	2 ± 0.1 nM	–	–	IC50 [1]: 200 ± 36 nM; EC50 ([4]; Trypanosoma brucei): > 50 µM; EC50 ([6]; Trypanosoma brucei): 18 ± 0.5 nM; EC50 ([12]; HepG2, read-out: EC50 values, HepG2): < 1 µM
